Experimental findings from patent publication US12435060B2, “Acylamino bridged heterocyclic compound, and composition and application thereof” (BEIJING SCITECH-MQ PHARMACEUTICALS LIMITED, priority 2019, dated 2025) are described below.

pIC50: −log10 of the molar value.

In the experiment the test system is HT29 cells. Briefly: Inhibition of cell necrosis (CCK8 method), induced programmed necrosis of HT29 cells. The class given is cell-based. The settings on record: Homo sapiens, HT-29; rescue from necrosis induced by TNF-α 20 ng/mL, AT-406 1 μM, Z-VAD-FMK 20 μM; 16-20 hours; CCK-8, OD 450 nm. An outline of the steps:
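Rescue from programmed necrosis was scored by CCK-8 absorbance at 450 nm after 16-20 h of TNF-α (20 ng/mL), AT-406 (1 μM) and Z-VAD-FMK (20 μM) at 37 °C, 5% CO2. HT29 cells had received compound 30 min earlier across nine 4-fold dilutions (top 25000 nM final). IC50 came from % inhibition relative to uninduced and induced-only wells.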

As for `CC(C)Oc1ccc(Cl)c(-c2ccnc(NC(=O)c3nnc(Cc4ccccc4)[nH]3)c2)c1` [Example 111, 5-benzyl-N-(4-(2-chloro-5-isopropoxyphenyl)pyridin-2-yl)-4H-1,2,4-triazole-3-carboxamide], the pIC50 is at least 7.00.
Next, `COc1ccc(OC(C)C)cc1-c1ccnc(NC(=O)c2nnc(Cc3ccccc3)[nH]2)c1` [Example 112, 5-benzyl-N-(4-(5-isopropoxy-2-methoxyphenyl)pyridin-2-yl)-4H-1,2,4-triazole-3-carboxamide]: 5.00 to 6.00.
`Cc1ccc(OC(C)C)cc1-c1cncc(NC(=O)c2nnc(Cc3ccccc3)[nH]2)c1` [Example 113, 5-benzyl-N-(5-(5-isopropoxy-2-methylphenyl)pyridin-3-yl)-4H-1,2,4-triazole-3-carboxamide] had a pIC50 below 5.00.
`Cc1ccc(OC(C)C)cc1-c1ccnc(NC(=O)c2nnc(Cc3ccccc3)[nH]2)c1` [Example 114, 5-benzyl-N-(4-(5-isopropoxy-2-methylphenyl)pyridin-2-yl)-4H-1,2,4-triazole-3-carboxamide] had a negative-log IC50 (pIC50) of 6.00 to 7.00.
Next, `Cc1ccc(OCCC(C)(C)C)cc1-c1ccnc(NC(=O)c2nnc(Cc3ccccc3)[nH]2)c1` [Example 115, 5-benzyl-N-(4-(5-(3,3-dimethylbutoxy)-2-methylphenyl)pyridin-2-yl)-4H-1,2,4-triazole-3-carboxamide]: 6.00 to 7.00; `Cc1ccc(OCC(N)=O)cc1-c1ccnc(NC(=O)c2nnc(Cc3ccccc3)[nH]2)c1` [Example 116, N-(4-(5-(2-amino-2-oxoethoxy)-2-methylphenyl)pyridin-2-yl)-5-benzyl-4H-1,2,4-triazole-3-carboxamide]: 6.00 to 7.00; `Cc1ccc(OCC(C)(C)O)cc1-c1ccnc(NC(=O)c2nnc(Cc3ccccc3)[nH]2)c1` [Example 117, 5-benzyl-N-(4-(5-(2-hydroxyl-2-methylpropoxy)-2-methylphenyl)pyridin-2-yl)-4H-1,2,4-triazole-3-carboxamide]: at least 7.00.
`Cc1ccc(OCC(C)(C)O)cc1-c1ccnc(NC(=O)c2nnc(CC3CCCC3)[nH]2)c1` [Example 118, 5-(cyclopentylmethyl)-N-(4-(5-(2-hydroxyl-2-methylpropoxy)-2-methylphenyl)pyridin-2-yl)-4H-1,2,4-triazole-3-carboxamide] had a pIC50 of at least 7.00.
Next, `Cc1ccc(OCC(C)(C)O)cc1-c1ccnc(NC(=O)c2nnc(CC3CCCCC3)[nH]2)c1` [Example 119, 5-(cyclohexylmethyl)-N-(4-(5-(2-hydroxyl-2-methylpropoxy)-2-methylphenyl)pyridin-2-yl)-4H-1,2,4-triazole-3-carboxamide]: at least 7.00; `Cc1ccc(OCC#N)cc1-c1ccnc(NC(=O)c2nnc(Cc3ccccc3)[nH]2)c1` [Example 120, 5-benzyl-N-(4-(5-(cyanomethoxy)-2-methylphenyl)pyridin-2-yl)-4H-1,2,4-triazole-3-carboxamide]: 6.00 to 7.00.
Next, `Cc1ccc(OCC2CCCO2)cc1-c1ccnc(NC(=O)c2nnc(Cc3ccccc3)[nH]2)c1` (stereo not drawn) [Example 121, 5-benzyl-N-(4-(2-methyl-5-((tetrahydrofuran-2-yl)methoxy)phenyl)pyridin-2-yl)-4H-1,2,4-triazole-3-carboxamide]: at least 7.00; `Cc1ccc(OCC2CCOC2)cc1-c1ccnc(NC(=O)c2nnc(Cc3ccccc3)[nH]2)c1` (stereo not drawn) [Example 122, 5-benzyl-N-(4-(2-methyl-5-((tetrahydrofuran-3-yl)methoxy)phenyl)pyridin-2-yl)-4H-1,2,4-triazole-3-carboxamide]: at least 7.00; `Cc1ccc(OCC2CCCCO2)cc1-c1ccnc(NC(=O)c2nnc(Cc3ccccc3)[nH]2)c1` (stereo not drawn) [Example 123, 5-benzyl-N-(4-(2-methyl-5-((tetrahydro-2H-pyran-2-yl)methoxy)phenyl)pyridin-2-yl)-4H-1,2,4-triazole-3-carboxamide]: at least 7.00.
Turning to `O=C(Nc1cc(-c2ccccc2OCCO)ccn1)c1nnc(Cc2ccccc2)[nH]1` [Example 124, 5-benzyl-N-(4-(2-(2-hydroxyethoxy)phenyl)pyridin-2-yl)-4H-1,2,4-triazole-3-carboxamide], the negative logarithm of the IC50 (pIC50) was 5.00 to 6.00.
Next, `Cc1ccc(OCCO)cc1-c1ccnc(NC(=O)c2nnc(Cc3ccccc3)[nH]2)c1` [Example 125, 5-benzyl-N-(4-(5-(2-hydroxyethoxy)-2-methylphenyl)pyridin-2-yl)-4H-1,2,4-triazole-3-carboxamide]: 6.00 to 7.00; `COCCOc1ccccc1-c1ccnc(NC(=O)c2nnc(Cc3ccccc3)[nH]2)c1` [Example 126, 5-benzyl-N-(4-(2-(2-methoxyethoxy)phenyl)pyridin-2-yl)-4H-1,2,4-triazole-3-carboxamide]: 5.00 to 6.00.
The compound `COCCOc1ccc(C)c(-c2ccnc(NC(=O)c3nnc(Cc4ccccc4)[nH]3)c2)c1` [Example 128, 5-benzyl-N-(4-(5-(2-methoxyethoxy)-2-methylphenyl)pyridin-2-yl)-4H-1,2,4-triazole-3-carboxamide] gave a negative logarithm of the IC50 (pIC50) of at least 7.00.
Turning to `COCCOc1cnc(C)c(-c2ccnc(NC(=O)c3nnc(Cc4ccccc4)[nH]3)c2)c1` [Example 129, 5-benzyl-N-(5-(2-methoxyethoxy)-2-methyl-[3,4′-bipyridin]-2′-yl)-4H-1,2,4-triazole-3-carboxamide], the negative logarithm of the IC50 (pIC50) was 6.00 to 7.00.
In the case of `COCCOc1ccc(C)c(-c2ccnc(NC(=O)c3nnc(Cc4ccccc4)s3)c2)c1` [Example 130, 5-benzyl-N-(4-(5-(2-methoxyethoxy)-2-methylphenyl)pyridin-2-yl)-1,3,4-thiodiazol-2-carboxamide], the pIC50 is below 5.00.
For the compound `CCOCCOc1ccc(C)c(-c2ccnc(NC(=O)c3nnc(Cc4ccccc4)[nH]3)c2)c1` [Example 131, 5-benzyl-N-(4-(5-(2-ethoxyethoxy)-2-methylphenyl)pyridin-2-yl)-4H-1,2,4-triazole-3-carboxamide], the negative logarithm of the IC50 (pIC50) is at least 7.00.
On to `Cc1ncc(OCCOC(C)C)cc1-c1ccnc(NC(=O)c2nnc(Cc3ccccc3)[nH]2)c1` [Example 132, 5-benzyl-N-(5-(2-isopropoxyethoxy)-2-methyl-[3,4′-dipyridine]-2′-yl)-4H-1,2,4-triazole-3-carboxamide], for which the pIC50 was 6.00 to 7.00.
In the case of `Cc1ccc(OCCOC(C)C)cc1-c1ccnc(NC(=O)c2nnc(Cc3ccccc3)[nH]2)c1` [Example 133, 5-benzyl-N-(4-(5-(2-isopropoxyethoxy)-2-methylphenyl)pyridin-2-yl)-4H-1,2,4-triazole-3-carboxamide], the pIC50 is at least 7.00.
Then `Cc1ccc(OCCN(C)C)cc1-c1ccnc(NC(=O)c2nnc(Cc3ccccc3)[nH]2)c1` [Example 134, 5-benzyl-N-(4-(5-(2-(dimethylamino)ethoxy)-2-methylphenyl)pyridin-2-yl)-4H-1,2,4-triazole-3-carboxamide], with 6.00 to 7.00.
Then `CCN(CC)CCOc1ccc(C)c(-c2ccnc(NC(=O)c3nnc(Cc4ccccc4)[nH]3)c2)c1` [Example 135, 5-benzyl-N-(4-(5-(2-(diethylamino)ethoxy)-2-methylphenyl)pyridin-2-yl)-4H-1,2,4-triazole-3-carboxamide], with at least 7.00; and `Cc1ccc(OCCN2CCN(C)CC2)cc1-c1ccnc(NC(=O)c2nnc(Cc3ccccc3)[nH]2)c1` [Example 136, 5-benzyl-N-(4-(2-methyl-5-(2-(4-methylpiperazin-1-yl)ethoxy)phenyl)pyridin-2-yl)-4H-1,2,4-triazole-3-carboxamide], with at least 7.00.
The compound `Cc1ccc(OCCC2OCCO2)cc1-c1ccnc(NC(=O)c2nnc(Cc3ccccc3)[nH]2)c1` [Example 137, N-(4-(5-(2-(1,3-dioxolan-2-yl)ethoxy)-2-methylphenyl)pyridin-2-yl)-5-benzyl-4H-1,2,4-triazole-3-carboxamide] gave a pIC50 of at least 7.00.
Then `Cc1ccc(OCCCC(F)(F)F)cc1-c1ccnc(NC(=O)c2nnc(Cc3ccccc3)[nH]2)c1` [Example 138, 5-benzyl-N-(4-(2-methyl-5-(4,4,4-trifluorobutoxy)phenyl)pyridin-2-yl)-4H-1,2,4-triazole-3-carboxamide], with at least 7.00.
As for `Cc1ccc(OCCCN(C)C)cc1-c1ccnc(NC(=O)c2nnc(Cc3ccccc3)[nH]2)c1` [Example 139, 5-benzyl-N-(4-(5-(3-(dimethylamino)propoxy)-2-methylphenyl)pyridin-2-yl)-4H-1,2,4-triazole-3-carboxamide], the pIC50 is below 5.00.
The compound `Cc1ccc(OCCCO)cc1-c1ccnc(NC(=O)c2nnc(Cc3ccccc3)[nH]2)c1` [Example 140, 5-benzyl-N-(4-(5-(3-hydroxylpropoxy)-2-methylphenyl)pyridin-2-yl)-4H-1,2,4-triazole-3-carboxamide] gave a negative-log IC50 (pIC50) of at least 7.00.
In the case of `COCCCOc1ccc(C)c(-c2ccnc(NC(=O)c3nnc(Cc4ccccc4)[nH]3)c2)c1` [Example 141, 5-benzyl-N-(4-(5-(3-methoxypropoxy)-2-methylphenyl)pyridin-2-yl)-4H-1,2,4-triazole-3-carboxamide], the negative-log IC50 (pIC50) is at least 7.00.
The compound `COCCCOc1ccc(C)c(-c2ccnc(NC(=O)c3nnc(C(C)c4ccccc4)[nH]3)c2)c1` (stereo not drawn) [Example 142, N-(4-(5-(3-methoxypropoxy)-2-methylphenyl)pyridin-2-yl)-5-(1-phenylethyl)-4H-1,2,4-triazole-3-carboxamide] had a negative-log IC50 (pIC50) of 6.00 to 7.00.
In turn, `COCCCOc1ccc(C)c(-c2ccnc(NC(=O)c3nnc(C(C)c4ccccc4)o3)c2)c1` (stereo not drawn) [Example 143, N-(4-(5-(3-methoxypropoxy)-2-methylphenyl)pyridin-2-yl)-5-(1-phenylethyl)-1,3,4-oxadiazol-2-carboxamide] showed a negative-log IC50 (pIC50) of 6.00 to 7.00.
Then `COCCCOc1ccc(C)c(-c2ccnc(NC(=O)c3nnc(CC4CCCC4)[nH]3)c2)c1` [Example 144, 5-(cyclopentylmethyl)-N-(4-(5-(3-methoxypropoxy)-2-methylphenyl)pyridin-2-yl)-4H-1,2,4-triazole-3-carboxamide], with at least 7.00.
